Reference: the supplement of paper PMC11208160

Test: recombinant UMI read abundance after kanamycin selection (control-corrected) (log10(CPM+1)); higher = more efficient recombination; extreme values may be limits of the assay; sequences stand for … in AGTGCAGAGAAAATCGGCCAGTTTTCTCTGCCTGCAGTCCGCATGCCGTGGGACCCCTTGGGTTCTAACCTGTTGCCTAGATTTATGCAGCGGACTGCCTTTCTCCCAAAGTGATAAACCGG…AGGTTGGTTTCACT; site = the 11-nt donor
Procedure: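 Pooled E. coli donor-specificity screen for the IS621 bridge recombinase. Each library member carries a reprogrammed 11-nt donor and a full-length LE bridge RNA expressed in cis from the natural promoter, with a paired donor-binding loop (8-nt LDG + 4-nt RDG) and a target-binding loop fixed to T5. It is co-electroporated with a T5 target plasmid; recombinase is induced with 0.07 mM IPTG and recombinants are selected on kanamycin. UMIs are counted as CPM, averaged over two biological replicates and corrected by the unselected control. Molecule = full bridge RNA written as DNA, built from the T5 scaffold: LDG = donor specificity nt 1-8, RDG = reverse complement of nt 8-11.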
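Note: IS621 bridge recombinase in Escherichia coli cells against a fixed T5 target plasmid.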

Row | Sequence | recombinant UMI read abundance (log10)
1 | ACACATCCATGGACCGGTTTTCCCGGTAATCCGTATTTGAC (site ACACATCCTTT) | 0.421
2 | ACACATCCATGGACCGGTTTTCCCGGTAATCCGTATTTGAC (site ACACATGCTGT) | 0
3 | ACACATCCATGGACCGGTTTTCCCGGTAATCCGTATTTGAC (site ACACATTCTGT) | 0.87
4 | ACACATCCATGGACCGGTTTTCCCGGTAATCCGTATTTGAC (site ACACCTCCTGT) | 0.91
5 | ACACATCCATGGACCGGTTTTCCCGGTAATCCGTATTTGAC (site ACACGTCCTGT) | 0.84
6 | ACACATCCATGGACCGGTTTTCCCGGTAATCCGTATTTGAC (site ACACTTCCTGT) | 0
7 | ACACATCCATGGACCGGTTTTCCCGGTAATCCGTATTTGAC (site ACAGATCCTGT) | 0
8 | ACACATCCATGGACCGGTTTTCCCGGTAATCCGTATTTGAC (site ACATATCCTGT) | 0.818
9 | ACACATCCATGGACCGGTTTTCCCGGTAATCCGTATTTGAC (site ACCCATCCTGT) | 0
10 | ACACATCCATGGACCGGTTTTCCCGGTAATCCGTATTTGAC (site ACGCATCCTGT) | 0
11 | ACACATCCATGGACCGGTTTTCCCGGTAATCCGTATTTGAC (site ACTCATCCTGT) | 0
12 | ACACATCCATGGACCGGTTTTCCCGGTAATCCGTATTTGAC (site AGACATCCTGT) | 0
13 | ACACATCCATGGACCGGTTTTCCCGGTAATCCGTATTTGAC (site ATACATCCTGT) | 0
14 | ACACATCCATGGACCGGTTTTCCCGGTAATCCGTATTTGAC (site CCACATCCTGT) | 0.581
15 | ACACATCCATGGACCGGTTTTCCCGGTAATCCGTATTTGAC (site GCACATCCTGT) | 0
16 | ACACATCCATGGACCGGTTTTCCCGGTAATCCGTATTTGAC (site TCACATCCTGT) | 0.538
17 | ACACATCCATGGACCGGTTTTCCCGGTAATCCGTATTTGGC (site ACACATCCTGA) | 0
18 | ACACATCCATGGACCGGTTTTCCCGGTAATCCGTATTTGGC (site ACACATCCTGC) | 1.5
19 | ACACATCCATGGACCGGTTTTCCCGGTAATCCGTATTTGGC (site ACACATCCTGG) | 0
20 | ACACATCCATGGACCGGTTTTCCCGGTAATCCGTATTTGGC (site ACACATCCTGT) | 1.19
21 | ACACCATCATGGACCGGTTTTCCCGGTAATCCGTATTTGAG (site ACACCATCTCT) | 1.25
22 | ACACCATCATGGACCGGTTTTCCCGGTAATCCGTATTTGCA (site ACACCATCTTG) | 2.8
23 | ACACCATCATGGACCGGTTTTCCCGGTAATCCGTATTTGCA (site ACAGTATCTTG) | 1.21
24 | ACACCCTCATGGACCGGTTTTCCCGGTAATCCGTATTTGAC (site ACACCCTCTGT) | 3.42

Row | Sequence | recombinant UMI read abundance (log10)
25 | ACACCGTCATGGACCGGTTTTCCCGGTAATCCGTATTTGCC (site ACACCGTCTGG) | 3.04
26 | ACACGAACATGGACCGGTTTTCCCGGTAATCCGTATTTGGC (site ACACGAACTGA) | 1.19
27 | ACACGAACATGGACCGGTTTTCCCGGTAATCCGTATTTGGC (site ACACGAACTGC) | 2.77
28 | ACACGAACATGGACCGGTTTTCCCGGTAATCCGTATTTGGC (site ACACGAACTGG) | 0
29 | ACACGAACATGGACCGGTTTTCCCGGTAATCCGTATTTGGC (site ACACGAACTGT) | 1.93
30 | ACACGAACATGGACCGGTTTTCCCGGTAATCCGTATTTGTA (site ACACGAACTAA) | 0.0114
31 | ACACGAACATGGACCGGTTTTCCCGGTAATCCGTATTTGTA (site ACACGAACTCA) | 0.747
32 | ACACGAACATGGACCGGTTTTCCCGGTAATCCGTATTTGTA (site ACACGAACTGA) | 1.52
33 | ACACGAACATGGACCGGTTTTCCCGGTAATCCGTATTTGTA (site ACACGAACTTA) | 2.52
34 | ACACGATCATGGACCGGTTTTCCCGGTAATCCGTATTTGTC (site ACACGAACTGA) | 0.373
35 | ACACGATCATGGACCGGTTTTCCCGGTAATCCGTATTTGTC (site ACACGACCTGA) | 0
36 | ACACGATCATGGACCGGTTTTCCCGGTAATCCGTATTTGTC (site ACACGAGCTGA) | 0
37 | ACACGATCATGGACCGGTTTTCCCGGTAATCCGTATTTGTC (site ACACGATCTGA) | 2.46
38 | ACACGTCCATGGACCGGTTTTCCCGGTAATCCGTATTTGAC (site ACACATCCTGT) | 0
39 | ACACGTCCATGGACCGGTTTTCCCGGTAATCCGTATTTGAC (site ACACCTCCTGT) | 0
40 | ACACGTCCATGGACCGGTTTTCCCGGTAATCCGTATTTGAC (site ACACGTCCTGT) | 0.959
41 | ACACGTCCATGGACCGGTTTTCCCGGTAATCCGTATTTGAC (site ACACTTCCTGT) | 0
42 | ACACTAACATGGACCGGTTTTCCCGGTAATCCGTATTTGTC (site ACACAAACTGA) | 0
43 | ACACTAACATGGACCGGTTTTCCCGGTAATCCGTATTTGTC (site ACACCAACTGA) | 0.94
44 | ACACTAACATGGACCGGTTTTCCCGGTAATCCGTATTTGTC (site ACACGAACTGA) | 0
45 | ACACTAACATGGACCGGTTTTCCCGGTAATCCGTATTTGTC (site ACACTAACTGA) | 2.12
46 | ACACTATCATGGACCGGTTTTCCCGGTAATCCGTATTTGTA (site ACACTATCTTA) | 2.98
47 | ACACTATCATGGACCGGTTTTCCCGGTAATCCGTATTTGTA (site ACAGTATCTTG) | 0
48 | ACACTTACATGGACCGGTTTTCCCGGTAATCCGTATTTGTT (site ACACTTACTAA) | 0.147

Row | Sequence | recombinant UMI read abundance (log10)
49 | ACACTTTCATGGACCGGTTTTCCCGGTAATCCGTATTTGCA (site ACACTTTCTTG) | 2.82
50 | ACACTTTCATGGACCGGTTTTCCCGGTAATCCGTATTTGCA (site ACAGTATCTTG) | 1.19
51 | ACAGAATCATGGACCGGTTTTCCCGGTAATCCGTATTTGCA (site ACAGAATCTTG) | 2.9
52 | ACAGAATCATGGACCGGTTTTCCCGGTAATCCGTATTTGCA (site ACAGCATCTTG) | 2.64
53 | ACAGAATCATGGACCGGTTTTCCCGGTAATCCGTATTTGCA (site ACAGGATCTTG) | 2.45
54 | ACAGAATCATGGACCGGTTTTCCCGGTAATCCGTATTTGCA (site ACAGTATCTTG) | 1.8
55 | ACAGACTCATGGACCGGTTTTCCCGGTAATCCGTATTTGCA (site ACAGACTCTTG) | 2.44
56 | ACAGACTCATGGACCGGTTTTCCCGGTAATCCGTATTTGCA (site ACAGTATCTTG) | 0
57 | ACAGAGGCATGGACCGGTTTTCCCGGTAATCCGTATTTGTG (site ACAGAGGCTCA) | 1.14
58 | ACAGGATCATGGACCGGTTTTCCCGGTAATCCGTATTTGCA (site ACAGAATCTTG) | 2.47
59 | ACAGGATCATGGACCGGTTTTCCCGGTAATCCGTATTTGCA (site ACAGCATCTTG) | 2.01
60 | ACAGGATCATGGACCGGTTTTCCCGGTAATCCGTATTTGCA (site ACAGGATCTTG) | 1.77
61 | ACAGGATCATGGACCGGTTTTCCCGGTAATCCGTATTTGCA (site ACAGTATCTTG) | 2.38
62 | ACAGTAACATGGACCGGTTTTCCCGGTAATCCGTATTTGCT (site ACAGTAACTAG) | 2.7
63 | ACAGTAACATGGACCGGTTTTCCCGGTAATCCGTATTTGCT (site ACAGTATCTTG) | 0.994
64 | ACAGTACCATGGACCGGTTTTCCCGGTAATCCGTATTTGCA (site ACAGTAACTTG) | 0
65 | ACAGTACCATGGACCGGTTTTCCCGGTAATCCGTATTTGCA (site ACAGTACCTTG) | 0.00459
66 | ACAGTACCATGGACCGGTTTTCCCGGTAATCCGTATTTGCA (site ACAGTAGCTTG) | 0.138
67 | ACAGTACCATGGACCGGTTTTCCCGGTAATCCGTATTTGCA (site ACAGTATCTTG) | 1.71
68 | ACAGTAGCATGGACCGGTTTTCCCGGTAATCCGTATTTGCG (site ACAGTAGCTCG) | 2.42
69 | ACAGTAGCATGGACCGGTTTTCCCGGTAATCCGTATTTGCG (site ACAGTATCTTG) | 0.736
70 | ACAGTATCATGGACCGGTTTTCCCGGTAATCCGTATTTGAA (site ACAGTATCTTA) | 2.34
71 | ACAGTATCATGGACCGGTTTTCCCGGTAATCCGTATTTGAA (site ACAGTATCTTC) | 1.73
72 | ACAGTATCATGGACCGGTTTTCCCGGTAATCCGTATTTGAA (site ACAGTATCTTG) | 0.829
